This is an account of results in publication PMC6271077, “Synthesis, Anticancer and Antibacterial Activity of Salinomycin N-Benzyl Amides” (Molecules, 2014).

In one assay the test system is HL-60. The assay can be described thus: Antiproliferative MTT assay, HL-60. It counts as cell-based, human. As to conditions: for IC50: Homo sapiens, read-out: IC50 HL-60; for SI HL-60: SI = IC50 BALB/3T3 / IC50 HL-60. The text has this:
(§1) Four human cancer cell lines and one normal cell line were used to evaluate anticancer activity of SAL and its N-benzyl amides: human acute promyelocytic leukemia (HL-60) and its vincristine resistant subline (HL-60/vinc), human colon adenocarcinoma cell lines sensitive (LoVo) and resistant to doxorubicin (LoVo/dx) as well as also normal murine embryonic fibroblast cell line (BALB/3T3). The BALB/3T3 cell line was purchased from the American Type Culture Collection (ATCC Rockville, MD, USA), HL-60 cell line from European Type Culture Collection by courtesy of Professor Spik and Dr Mazurier (Laboratory of Biological Chemistry USTL, Lille, France) and HL-60/vinc, LoVo and LoVo/dx by courtesy of Prof. E. Borowski (Technical University of Gdańsk, Gdańsk, Poland). All the cell lines are maintained in the Institute of Immunology and Experimental Therapy (IIET), Wrocław, Poland.
(§2) Human leukemia cells were cultured in ISCOVE medium (IIET, Wroclaw, Polond) containing 10% fetal bovine serum and 2 mM L-glutamine (Sigma Aldrich) and 1 µg/100 mL […] for HL-60/vinc (Sigma Aldrich). Human colon adenocarcinoma cell lines were cultured in mixture of OptiMEM and RPMI 1640 (1:1) medium (IIET) supplemented with 5% fetal bovine serum (Thermo Fisher Scientific, Waltham, MA, USA), 2 mM L-glutamine, 1 mM sodium pyruvate (Sigma Aldrich) and 10 µg/100 mL doxorubicin for LoVo/dx (Sigma Aldrich). Murine embryonic fibroblast cells were cultured in Dulbecco medium (Gibco, Darmstadt, Germany) supplemented with 10% fetal bovine serum (Thermo Fisher Scientific) and 2 mM L-glutamine (Sigma Aldrich). All culture media contained antibiotics: 100 U/mL penicillin (Sigma Aldrich) and 100 µg/mL streptomycin (Polfa-Tarchomin, City, Poland). All cell lines were cultured during entire experiment in humid atmosphere at 37 °C and 5% CO2.
(§3) Twenty four hours before adding the tested compounds all cell lines were seeded in 96-well plates (Sarstedt, Nümbrecht, Germany) in appropriate media with 10^4 cells per well. All cell lines were exposed to each tested agent at four different concentrations from the range 100 to 0.1 µg/mL for 72 h. The cells were also exposed to the reference drugs: cisplatin (Accord, London, UK) and doxorubicin hydrochloride (Fluka, St. Louis, MO, USA). Additionally, all cell lines were exposed to DMSO (the solvent used for tested compounds, Sigma Aldrich) at the concentrations corresponding to those in the tested agent dilutions. For adherent cells sulphorodamine B assay was performed and MTT assay for leukemia cells.
(§4) Proliferation inhibition of leukemia cells by tested compounds was measured by means of MTT assay. Thus, 20 µL of 3-(4,5-dimethylthiazol-2-yl)-2,5-diphenyl tetrazolium bromide solution (Sigma Aldrich) were added to each well and plates were left in cell incubator for 4 h to allow the cells to metabolize yellow MTT to blue formazan. Then, the lysing mixture consisting of 225 mL dimethylformamide, 67.5 g sodium dodecyl sulfate (both from Sigma Aldrich) and 275 mL of distilled water was added in 80 µL volume per well. Plates were incubated for 24 h for the formazan crystals to be released from cells, dissolved and then absorbance of each well was read at Synergy H4 photometer (BioTek Instruments) at 570 nm wavelength.
(§5) Results are presented as mean IC50 (concentration of the tested compound that inhibits cell proliferation by 50%) ± standard deviation. IC50 values were calculated in Cheburator 1.0.2, Dmitry Nevozhay software for each experiment. Compounds at each concentration were tested in triplicates in single experiment and each experiment was repeated at least three times independently. The IR was defined as the ratio of IC50 for a given compound calculated for resistant cell line to that measured for its parental drug sensitive cell line (Table 4).

The next assay relates to HL-60/vinc. Briefly: Antiproliferative MTT assay, HL-60/vinc. The format is cell-based, human. As to conditions: for IC50: Homo sapiens, HL60/vinc, 72 h, read-out: IC50 HL-60/vinc; for IR HL-60/vinc: IR = IC50 HL-60/vinc / IC50 HL-60; for SI HL-60/vinc: SI = IC50 BALB/3T3 / IC50 HL-60/vinc.
Source text: as §1, §2, §3, §4, §5

The subject of the next assay is LoVo. The assay can be described thus: Antiproliferative SRB assay, LoVo. It counts as cell-based, human. Particulars: for IC50: Homo sapiens, LoVo, 72 h, read-out: IC50 LoVo; for SI LoVo: SI = IC50 BALB/3T3 / IC50 LoVo.
Source text: as §1, §2, §3
(§6) After 72 h of incubation with tested compounds the cells were fixed in situ by gently adding of 50 µL per well of cold 50% trichloroacetic acid TCA (Avantor Performance Materials, City, Poland) and were incubated at 4 °C for 1 h. Then the wells were washed four times with water and air-dried. Next, 50 µL of 0.2% solution of sulphorodamine B (Sigma Aldrich) in 1% acetic acid (Avantor Performance Materials) were added to each well and plates were incubated at room temperature for 0.5 h. After incubation time, unbound dye was removed by washing plates four times with 1% acetic acid, whereas the stain bound to cells was solubilized with 150 µL of 10 mM Tris base (Sigma Aldrich). Absorbance of each solution was read at Synergy H4 photometer (BioTek Instruments, Winooski, VT, USA) at 540 nm wavelength.
as §5

The test system of a further assay is LoVo/dx. Briefly: Antiproliferative SRB assay, LoVo/dx. The format is cell-based, human. As to conditions: for IC50: Homo sapiens, LoVo/DX, 72 h, read-out: IC50 LoVo/dx; for IR LoVo/DX: IR = IC50 LoVo/dx / IC50 LoVo; for SI LoVo/DX: SI = IC50 BALB/3T3 / IC50 LoVo/dx.
Source text: as §1, §2, §3, §6, §5

The subject of assay [1] is M. tuberculosis standard H37Rv strain. Briefly: Tuberculostatic activity, test-tube dilution. The format is cell-based. Particulars: Mycobacterium tuberculosis, read-out: MIC M. tuberculosis Standard H37Rv Strain.
Assay [2] concerns M. tuberculosis isoniazid-sensitive strain (spec. 192). The assay can be described thus: Tuberculostatic activity, test-tube dilution. It counts as cell-based. Particulars: Mycobacterium tuberculosis, read-out: MIC M. tuberculosis Isoniazid-Sensitive Strain.
Assay [3] concerns HL-60, HL-60/vinc, LoVo, LoVo/dx. Briefly: Antiproliferative assays, all four cancer cell lines (range given). It counts as cell-based. Particulars: Homo sapiens, read-out: IC50 (range over the cancer cell lines).
Source text: as §1, §2, §3, §6
Proliferation inhibition of leukemia cells by tested compounds was measured by means of MTT assay. […]

Assay [4] relates to standard and "wild" strains of M. tuberculosis. The assay can be described thus: Tuberculostatic activity, all M. tuberculosis strains (overall). Particulars: Mycobacterium tuberculosis, H37RV, read-out: MIC (over M. tuberculosis strains). The format is cell-based.

Molecules are shown by their SMILES. Converted amounts (≈) assume the structure as drawn. Like-named read-outs stand apart in the source and are kept apart here.

For `CC[C@H](C(=O)NCc1ccccc1Br)C1CC[C@H](C)C([C@@H](C)[C@H](O)[C@H](C)C(=O)[C@H](CC)C2O[C@]3(C=C[C@@H](O)C4(CC[C@@](C)(C5CC[C@](O)(CC)[C@H](C)O5)O4)O3)[C@H](C)C[C@@H]2C)O1` (stereo partly shown) [Br-o], the IC50 in the assay on HL-60 (HL-60, 72 h, MTT, mean ± SD, NA: not active in concentrations used (up to 100 µg/mL)) was 3.13 ± 0.71 µM; in the assay with HL-60/vinc it was 4.8 ± 1.48 µM; in the assay on LoVo (SRB, mean ± SD), 3.64 ± 0.07 µM; with LoVo/dx it was 2.87 ± 0.29 µM; in assay [3] (range over HL-60, HL-60/vinc, LoVo, LoVo/dx), 2.32 to 6.84 µM. The “SI HL-60” value in the assay with HL-60 is 2.08. The “IR HL-60/vinc” value with HL-60/vinc worked out at 1.53. The “SI HL-60/vinc” value in the assay with HL-60/vinc worked out at 1.36. Also, the “SI LoVo” value in the assay with LoVo is recorded as 1.79. In the assay with LoVo/dx, the “IR LoVo/DX” value was 0.79. In the assay on LoVo/dx, the “SI LoVo/DX” value came to 2.27. Besides, the MIC in assay [1], in assay [2] and in assay [4] was over 100 µg/mL each time.
As for `CCC(C(=O)NCc1ccccc1F)C1CCC(C)C(C(C)C(O)C(C)C(=O)C(CC)C2OC3(C=CC(O)C4(CCC(C)(C5CCC(O)(CC)C(C)O5)O4)O3)C(C)CC2C)O1` (stereo not shown) [F-o], the IC50 was 3.63 ± 0.14 µM with HL-60 (HL-60, 72 h); 4.44 ± 1.73 µM with HL-60/vinc; 3.49 ± 0.59 µM in the assay with LoVo; 2.32 ± 0.69 µM in the assay with LoVo/dx; 2.32 to 6.84 µM in assay [3]. The “SI HL-60” value with HL-60 is recorded as 1.64. For the same molecule, in the assay with HL-60/vinc, the “IR HL-60/vinc” value was determined as 1.22. Further, the “SI HL-60/vinc” value with HL-60/vinc is 1.34. Further, in the assay with LoVo, the “SI LoVo” value is given as 1.71. Also, in the assay on LoVo/dx, the “IR LoVo/DX” value is 0.66. Further, the “SI LoVo/DX” value with LoVo/dx stood at 2.57. Also, the figures for the MIC in assay [1] and in assay [2] were 100 µg/mL (≈ 117 µM) and 50 µg/mL (≈ 58.3 µM), respectively.
With `CCC(C(=O)NCc1ccccc1[N+](=O)[O-])C1CCC(C)C(C(C)C(O)C(C)C(=O)C(CC)C2OC3(C=CC(O)C4(CCC(C)(C5CCC(O)(CC)C(C)O5)O4)O3)C(C)CC2C)O1` (stereo not shown) [NO2-o], in the assay with HL-60 (HL-60, 72 h), the IC50 was determined as 3.47 ± 0.44 µM. The “SI HL-60” value in the assay with HL-60 is recorded as 2.75. For the same molecule, in the assay on HL-60/vinc, the IC50 came out at 6.84 ± 2.04 µM, the “IR HL-60/vinc” value is given as 1.97 and the “SI HL-60/vinc” value is 1.40. Further, in the assay with LoVo, the IC50 was 3.81 ± 0.18 µM and the “SI LoVo” value came out at 2.51. Moreover, in the assay with LoVo/dx, the IC50 was 2.45 ± 0.26 µM, the “IR LoVo/DX” value turned out to be 0.64 and the “SI LoVo/DX” value was determined as 3.90. The MIC in assay [1] stood at 50 µg/mL (≈ 56.5 µM). Also, the minimum inhibitory concentration (MIC) in assay [2] worked out at 50 µg/mL (≈ 56.5 µM). For the same molecule, in assay [3], the IC50 is 2.32 to 6.84 µM.
